≈ marks a conversion by molar mass, not a printed value.
Legend:
[1] = tested on: E. faecalis ATCC 29212; assay: microbe, parasite or virus in culture; assay type: cell-based, Enterococcus faecalis; details: broth microdilution, Mueller-Hinton broth (without cation adjustment), CLSI, inoculum 5×10^4 CFU mL^−1; wild type
Method: (§1) Determination of antibacterial activity: ADEP1 was purified from the culture supernatant of S. hawaiiensis NRRL 15010 as described.4 ADEPs 2, 4, 7, 9 were custom synthesised by EMC Microcollections, Tübingen, or provided by AiCuris, Wuppertal, Germany. The minimal inhibitory concentration (MIC) was determined by broth microdilution in Mueller‐Hinton broth (without cation adjustment) according to the guidelines of the Clinical Laboratory Standards Institute (CLSI).69 The inoculum was set to 5×10^4 CFU mL^−1 to allow some distance to the determined spontaneous resistance frequencies. […] All other ADEPs were used from DMSO stock solutions kept at −20 °C.

[2] = tested on: E. faecium L4001; assay type: cell-based, Enterococcus faecium; details: broth microdilution, Mueller-Hinton broth; wildtype
Method: as §1

[3] = tested on: S. aureus ATCC 29213; assay: microbe, parasite or virus in culture; assay type: cell-based, Staphylococcus aureus; details: broth microdilution, Mueller-Hinton broth (without cation adjustment), CLSI, inoculum 5×10^4 CFU mL^−1; wild type
Method: as §1

[4] = tested on: S. aureus 133; assay: microbe, parasite or virus in culture; assay type: cell-based, Staphylococcus aureus; details: broth microdilution, Mueller-Hinton broth (without cation adjustment), CLSI, inoculum 5×10^4 CFU mL^−1; wild type
Method: as §1

[5] = tested on: S. pneumoniae G9A; assay type: cell-based, Streptococcus pneumoniae; details: broth microdilution, Mueller-Hinton broth; wildtype
Method: as §1

[6] = tested on: S. aureus ATCC 29213; assay: Spontaneous resistance rate on ADEP-containing agar; assay type: cell-based, Staphylococcus aureus; details: 5×10^6 cells plated, colonies counted after 24 h at 37 °C
Method: (§2) Screening for ADEP‐resistant mutants and determination of resistance rates: Single colonies of wild‐type strains grown on Mueller‐Hinton agar plates overnight were suspended in sterile saline and a final inoculum of 5×10^6 cells was spread on plates supplemented with different ADEP congeners at 4× and 10× the MIC. For B. subtilis strain 3xclpP, ADEP7‐containing Mueller‐Hinton agar plates were additionally supplemented with 1 mM IPTG. Resistant colonies were counted after 24 h at 37 °C and colonies were randomly chosen for MIC determinations and sequencing. Mutations in the clpP gene of the respective isolated mutants were analysed by amplifying the clpP gene (and upstream promoter region) by PCR and sequencing of the resulting PCR amplicons (LGC genomics). Sequencing data were analysed by using SnapGene software (GSL Biotech).

[7] = tested on: S. aureus 133; assay: as above; assay type: cell-based, Staphylococcus aureus; details: ADEP exposure 4× MIC in Mueller-Hinton agar; 5×10^6 cells plated, colonies counted after 24 h at 37 °C
Method: as §2

[8] = tested on: S. aureus RC17; assay type: cell-based, Staphylococcus aureus; details: resistant clone of S. aureus ATCC 29213; ClpP A133→V, ring-ring interaction
Method: as §1, §2

[9] = tested on: S. aureus RC12; assay type: cell-based, Staphylococcus aureus; details: resistant clone of S. aureus ATCC 29213; ClpP E9→V, N-terminal gate
Method: as §1, §2

[10] = tested on: S. aureus RC7; assay type: cell-based, Staphylococcus aureus; details: resistant clone of S. aureus ATCC 29213; ClpP Q89→STOP, premature stop
Method: as §1, §2

[11] = tested on: S. aureus RC11; assay type: cell-based, Staphylococcus aureus; details: resistant clone of S. aureus ATCC 29213; ClpP Q82→P (ClpP core; α3)
Method: as §1, §2

[12] = tested on: S. aureus RC15; assay type: cell-based, Staphylococcus aureus; details: resistant clone of S. aureus ATCC 29213; ClpP E52→STOP, premature stop
Method: as §1, §2

[13] = tested on: S. aureus RC6; assay type: cell-based, Staphylococcus aureus; details: resistant clone of S. aureus 133; ClpP Q35→STOP, premature stop
Method: as §1, §2

[14] = tested on: S. aureus RC4; assay type: cell-based, Staphylococcus aureus; details: resistant clone of S. aureus 133; ClpP N173→D, ring-ring interaction
Method: as §1, §2

[15] = tested on: S. aureus RC2; assay type: cell-based, Staphylococcus aureus; details: resistant clone of S. aureus 133; ClpP M190→T, ADEP binding site
Method: as §1, §2

[16] = tested on: S. aureus RC1; assay type: cell-based, Staphylococcus aureus; details: resistant clone of S. aureus 133; ClpP Q132→H, oligomerisation sensor
Method: as §1, §2

[17] = tested on: S. aureus RC13; assay type: cell-based, Staphylococcus aureus; details: resistant clone of S. aureus ATCC 29213; ClpP G68→V (ClpP core)
Method: as §1, §2

[18] = tested on: S. aureus RC8; assay type: cell-based, Staphylococcus aureus; details: resistant clone of S. aureus ATCC 29213; Δ107 nt, C-terminal truncation
Method: as §1, §2

[19] = tested on: S. aureus RC14; assay type: cell-based, Staphylococcus aureus; details: resistant clone of S. aureus ATCC 29213; ClpP I91→T; A96→V (ClpP core; β3, β4)
Method: as §1, §2

[20] = tested on: S. aureus RC3; assay type: cell-based, Staphylococcus aureus; details: resistant clone of S. aureus 133; ClpP A133→T, ring-ring interaction
Method: as §1, §2

[21] = tested on: S. aureus RC9; assay type: cell-based, Staphylococcus aureus; details: resistant clone of S. aureus ATCC 29213; ClpP H123→R, active site
Method: as §1, §2

[22] = tested on: S. aureus RC16; assay type: cell-based, Staphylococcus aureus; details: resistant clone of S. aureus ATCC 29213; ClpP A114→T (ClpP core; β5)
Method: as §1, §2

[23] = tested on: S. aureus RC18; assay type: cell-based, Staphylococcus aureus; details: resistant clone of S. aureus ATCC 29213; ClpP R23→P, N-terminal gate
Method: as §1, §2

[24] = tested on: S. aureus RC5; assay type: cell-based, Staphylococcus aureus; details: resistant clone of S. aureus 133; ClpP A133→V, ring-ring interaction
Method: as §1, §2

[25] = tested on: S. aureus RC10; assay type: cell-based, Staphylococcus aureus; details: resistant clone of S. aureus ATCC 29213; ClpP I165→M (equatorial interface; α6)
Method: as §1, §2

`C[C@@H]1C[C@H]2C(=O)OC[C@H](NC(=O)[C@H](Cc3cc(F)cc(F)c3)NC(=O)CCC3CCCCC3)C(=O)N3CCC[C@H]3C(=O)N3CCCC[C@H]3C(=O)N[C@@H](C)C(=O)N2C1` [ADEP2] showed an MIC [1] of no more than 0.031 µg/mL, an MIC [2] of no more than 0.063 µg/mL and an MIC [3] of 0.125 µg/mL (≈ 0.156 µM). For the same compound, the MIC [4] was 0.031 µg/mL (≈ 0.0388 µM), the MIC [5] was no more than 0.063 µg/mL and the Resistance rate ([6]; ADEP exposure 4× MIC in Mueller-Hinton agar) was 7×10^−7. For the same compound, the Resistance rate ([6]; ADEP exposure 10× MIC in Mueller-Hinton agar) was 7×10^−7, the Resistance rate [7] was 3×10^−6 and the MIC [8] was greater than 64 µg/mL. For the same compound, the MIC [9] was greater than 64 µg/mL, the MIC [10] was greater than 64 µg/mL and the MIC [11] was greater than 64 µg/mL. The MIC [12] was greater than 64 µg/mL, the MIC [13] was greater than 64 µg/mL and the MIC [14] was greater than 64 µg/mL. For the same compound, the MIC [15] was 2 µg/mL (≈ 2.5 µM), the MIC [16] was 8 µg/mL (≈ 10 µM) and the MIC [17] was greater than 64 µg/mL. The MIC [18] was greater than 64 µg/mL, the MIC [19] was greater than 64 µg/mL and the MIC [20] was greater than 64 µg/mL. For the same compound, the MIC [21] was greater than 64 µg/mL, the MIC [22] was greater than 64 µg/mL and the MIC [23] was greater than 64 µg/mL. The MIC [24] was greater than 64 µg/mL and the MIC [25] was greater than 64 µg/mL.

Reference: PMC7496096, “Functional Characterisation of ClpP Mutations Conferring Resistance to Acyldepsipeptide Antibiotics in Firmicutes” (Chembiochem, 2020)
